Laboratory results reported in patent US20050123476A1 (priority 2001, published 2005).

Legend:
[1] = biological target: uPA (Homo sapiens, UniProt P00749); conditions: cited from earlier work
[2] = test system: human cervix adenocarcinoma HeLa cells; assay type: cell-based
[3] = test system: HeLa cells; assay type: cell-based, human
[4] = test system: HT1080 cells; assay type: cell-based, human

PGSGRSA
uPA:tPA selectivity [1]: 20

PCPGRVVGG
uPA:tPA selectivity [1]: 3.0

Aprotinin
effect on killing of HeLa cells by PrAg-U2 plus FP59 [2]: protected
effect on killing of HeLa cells by native PrAg plus FP59 [2]: had no effect

PGSGKSA
uPA:tPA selectivity [1]: 121

tranexamic acid [tranexainic acid]
effect on activation of pro-uPA by HeLa cells [3]: strongly inhibited
effect on binding/processing (activation) of PrAg-U2 on the HeLa cell surface [3]: strongly inhibited
effect on processing/activation of native PrAg by cells [3]: not

PQRGRSA
uPA:tPA selectivity [1]: 0.005

CNC(=O)[C@H](Cc1c[nH]c2ccccc12)NC(=O)[C@@H](CC(=O)NO)CC(C)C [GM6001]
protection of HT1080 cells against WT-PA plus FP59 [4]: did not protect
protection of HT1080 cells against challenge with PA-L1 and PA-L2 plus FP59 [4]: conferred clear protection

SGRSA
cleavage by uPA, times more efficiently than the physiological cleavage site present in plasminogen [1]: 1363 fold
uPA:tPA selectivity [1]: 20

CNC(=O)[C@@H](NC(=O)[C@H](CC(C)C)[C@H](O)C(=O)NO)C(C)(C)C [BB-2516, Marimastat]
protection of HT1080 cells against WT-PA plus FP59 [4]: did not protect
protection of HT1080 cells against challenge with PA-L1 and PA-L2 plus FP59 [4]: conferred clear protection
